Experimental data published in patent US20140107316A1, “DRUG DELIVERY CONJUGATES CONTAINING UNNATURAL AMINO ACIDS AND METHODS FOR USING” (priority 2012, published 2014).
Entries after “also recorded” stand apart in the source; their conditions may differ. Read-outs that look alike come from different tables or passages of the source.

Assays:
KB tumors = experiment: KB tumor assay in nu/nu mice
Protocol: Inhibition of Tumor Growth in Mice. Four to seven week-old mice (Balb/c or nu/nu strains) were purchased from Harlan Sprague Dawley, Inc. (Indianapolis, Ind.). Normal rodent chow contains a high concentration of folic acid (6 mg/kg chow); accordingly, mice used were maintained on the folate-free diet (Harlan diet #TD00434) for 1 week before tumor implantation to achieve serum folate concentrations close to the range of normal human serum. For tumor cell inoculation, 1×10^6 M109 cells (Balb/c strain) or 1×10^6 KB cells (nu/nu strain) in 100 μL were injected in the subcutis of the dorsal medial area. Tumors were measured in two perpendicular directions every 2-3 days using a caliper, and their volumes were calculated as 0.5×L×W^2, where L=measurement of longest axis in mm and W=measurement of axis perpendicular to L in mm. […] Dosing solutions were prepared fresh each day in PBS and administered through the lateral tail vein of the mice.
General KB Tumor Assay. The anti-tumor activity of the compounds described herein, when administered intravenously (i.v.) to tumor-bearing animals, was evaluated in nu/nu mice bearing subcutaneous KB tumors. Approximately 8 days post tumor inoculation in the subcutis of the right axilla with 1×10^6 KB cells (average tumor volume at to=50-100 mm^3), in mice (5/group) were injected i.v. three times a week (TIW), for 3 weeks with […] of the drug delivery conjugate or with an equivalent dose volume of PBS (control), unless otherwise indicated. Tumor growth was measured using calipers at 2-day or 3-day intervals in each treatment group. Tumor volumes were calculated using the equation V=a×b^2/2, where “a” is the length of the tumor and “b” is the width expressed in millimeters.
Toxicity as Measured by Weight Loss. The percentage weight change of the mice was determined in mice (5 mice/group) on selected days post-tumor inoculation (PTI), and graphed.
In vivo activity against tumors.

folate receptors (FRs) = target: T1, folate receptors (FRs) (Homo sapiens, UniProt P15328); experiment: Relative affinity assay (3H-folic acid displacement on KB cells); assay type: binding; details: compared to folic acid (relative affinity=1), 10% serum/FDRPMI
T1 construct: FR-positive KB cells were heavily seeded into 24-well cell culture plates; endogenous in cells; host or cells: KB cells (human cervical carcinoma)
T1 sequence (P15328 25-234): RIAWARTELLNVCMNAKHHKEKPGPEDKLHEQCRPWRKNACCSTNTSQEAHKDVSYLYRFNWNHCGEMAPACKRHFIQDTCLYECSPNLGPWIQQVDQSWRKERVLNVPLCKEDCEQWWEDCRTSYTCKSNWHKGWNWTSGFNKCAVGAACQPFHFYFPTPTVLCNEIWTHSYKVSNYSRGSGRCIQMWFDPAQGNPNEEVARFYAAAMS
Protocol: Relative Affinity Assay. The affinity for folate receptors (FRs) relative to folate was determined according to a previously described method (Westerhof, G. R., J. H. Schornagel, et al. (1995) Mol. Pharm. 48: 459-471) with slight modification. Briefly, FR-positive KB cells were heavily seeded into 24-well cell culture plates and allowed to adhere to the plastic for 18 h. Spent incubation media was replaced in designated wells with folate-free RPMI (FFRPMI) supplemented with 100 nM ^3H-folic acid in the absence and presence of increasing concentrations of test article or folic acid. Cells were incubated for 60 min at 37° C. and then rinsed 3 times with PBS, pH 7.4. Five hundred microliters of 1% SDS in PBS, pH 7.4, were added per well. Cell lysates were then collected and added to individual vials containing 5 mL of scintillation cocktail, and then counted for radioactivity. Negative control tubes contained only the ^3H-folic acid in FFRPMI (no competitor). Positive control tubes contained a final concentration of 1 mM folic acid, and CPMs measured in these samples (representing non-specific binding of label) were subtracted from all samples.

[1] = test system: folate receptor-positive KB cells; details: for In vitro specificity (fold): difference in IC50 between competed and non-competed group
Protocol: Inhibition of Cellular DNA Synthesis. The compounds described herein were evaluated using an in vitro cytotoxicity assay that predicts the ability of the drug to inhibit the growth of folate receptor-positive KB cells. The compounds were comprised of folate linked to a respective chemotherapeutic drug, as prepared according to the protocols described herein. The KB cells were exposed for up to 7 h at 37° C. to the indicated concentrations of folate-drug conjugate in the absence or presence of at least a 100-fold excess of folic acid. The cells were then rinsed once with fresh culture medium and incubated in fresh culture medium for 72 hours at 37° C. Cell viability was assessed using a ^3H-thymidine incorporation assay.
In vitro test against the various cancer cell lines. Cells are heavily seeded in 24-well Falcon plates and allowed to form nearly confluent monolayers overnight. Thirty minutes prior to the addition of the test compound, spent medium is aspirated from all wells and replaced with fresh folate-deficient RPMI medium (FFRPMI). A subset of wells are designated to receive media containing 100 μM folic acid. The cells in the designated wells are used to determine the targeting specificity. […] Following one rinse with 1 mL of fresh FFRPMI containing 10% heat-inactivated fetal calf serum, each well receives 1 mL of medium containing increasing concentrations of test compound (4 wells per sample) in the presence or absence of 100 μM free folic acid as indicated. Treated cells are pulsed for 2 h at 37° C., rinsed 4 times with 0.5 mL of media, and then chased in 1 mL of fresh medium up to 70 h. Spent medium is aspirated from all wells and replaced with fresh medium containing 5 μCi/mL ^3H-thymidine. Following a further 2 h 37° C. incubation, cells are washed 3 times with 0.5 mL of PBS and then treated with 0.5 mL of ice-cold 5% trichloroacetic acid per well. After 15 min, the trichloroacetic acid is aspirated and the cell material solubilized by the addition of 0.5 mL of 0.25 N sodium hydroxide for 15 min. A 450 μL aliquot of each solubilized sample is transferred to a scintillation vial containing 3 mL of Ecolume scintillation cocktail and then counted in a liquid scintillation counter. Final tabulated results are expressed as the percentage of ^3H-thymidine incorporation relative to untreated controls.
Folate receptor expressing cells. […] EC1456 was evaluated from 0.1-100 nM.

KB-CR tumors = experiment: Cisplatin-resistant KB-CR tumor model; assay type: in vivo; details: 3 mg/kg, twice per week (T/Th), 2 weeks
[2] = read-out: 50% competition, competed group (excess folic acid)

Row | SMILES | In vivo activity (KB tumors) | Relative Affinity (folate receptors (FRs)) | In vitro specificity (fold) [1] [fold] | IC50 [1, 2] [nM] | IC50 ([1]; read-out: In vitro IC50) [nM] | whole animal toxicity (KB tumors; 0.5 μmol/kg TIW, 2 wk, compared to PBS control) | partial responses (test animals) (KB tumors; intravenously 0.5 μmol/kg TIW, 2 wk) | partial responses (PRs) (KB-CR tumors)
1 | CCCC(=O)OCN(C(=O)[C@@H](NC(=O)[C@H]1CCCCN1C)C(C)CC)[C@H](C[C@@H](OC(C)=O)c1nc(C(=O)N[C@@H](Cc2ccc(O)cc2)C[C@H](C)C(=O)NNC(=O)OCCSSC[C@@H](NC(=O)[C@H](CC(=O)O)NC(=O)[C@H](CC(=O)O)NC(=O)[C@H](CCCNC(=N)N)NC(=O)[C@H](CC(=O)O)NC(=O)CC[C@H](NC(=O)c2ccc(NCc3cnc4nc(N)[nH]c(=O)c4n3)cc2)C(=O)O)C(=O)O)cs1)C(C)C (stereo partly shown) [EC1548] | Complete | 0.23 | 78 | 350 | 4.4 |  |  | 
2 | CCCCOCN(C(=O)[C@@H](NC(=O)[C@H]1CCCCN1C)C(C)CC)[C@H](C[C@@H](OC(C)=O)c1nc(C(=O)N[C@@H](Cc2ccc(O)cc2)C[C@H](C)C(=O)NNC(=O)OCCSSC[C@@H](NC(=O)[C@H](CCC(=O)NC[C@H](O)[C@@H](O)[C@H](O)[C@H](O)CO)NC(=O)[C@@H](CCC(=O)O)NC(=O)[C@H](CCC(=O)NC[C@H](O)[C@@H](O)[C@H](O)[C@H](O)CO)NC(=O)[C@@H](CCC(=O)O)NC(=O)[C@H](CCC(=O)NC[C@H](O)[C@@H](O)[C@H](O)[C@H](O)CO)NC(=O)CC[C@@H](NC(=O)c2ccc(NCc3cnc4nc(N)[nH]c(=O)c4n3)cc2)C(=O)O)C(=O)O)cs1)C(C)C (stereo partly shown) [EC1663] |  |  |  |  |  | did not exhibit significant host animal toxicity; also recorded: does not show any evidence of whole animal toxicity | 4/4 | 
3 | CCCC(=O)OCN(C(=O)[C@@H](NC(=O)[C@H]1CCCCN1C)C(C)CC)[C@H](C[C@@H](OC(C)=O)c1nc(C(=O)N[C@@H](Cc2ccc(O)cc2)C[C@H](C)C(=O)NNC(=O)OCCSSC[C@@H](NC(=O)[C@@H](CC(=O)O)NC(=O)[C@@H](CC(=O)O)NC(=O)[C@@H](CCCNC(=N)N)NC(=O)[C@@H](CC(=O)O)NC(=O)CC[C@@H](NC(=O)c2ccc(NCc3cnc4nc(N)[nH]c(=O)c4n3)cc2)C(=O)O)C(=O)O)cs1)C(C)C (stereo partly shown) [EC1299] | Complete | 0.29 | 778 | 700 | 0.9 |  |  | 
4 | CCCC(=O)OCN(C(=O)[C@@H](NC(=O)[C@H]1CCCCN1C)C(C)CC)C(C[C@@H](OC(C)=O)c1nc(C(=O)N[C@@H](Cc2ccc(O)cc2)C[C@H](C)C(=O)NNC(=O)OCCSSC[C@@H](NC(=O)[C@@H](CC(=O)O)NC(=O)[C@H](CC(=O)O)NC(=O)[C@H](CCCNC(=N)N)NC(=O)[C@H](CC(=O)O)NC(=O)CC[C@H](NC(=O)c2ccc(NCc3cnc4nc(N)[nH]c(=O)c4n3)cc2)C(=O)O)C(=O)O)cs1)C(C)C (stereo partly shown) [EC1549] | Complete | 0.90 | 78 | 350 | 4.5 |  |  | 
5 | CCCC(=O)OCN(C(=O)[C@@H](NC(=O)[C@H]1CCCCN1C)C(C)CC)[C@H](C[C@@H](OC(C)=O)c1nc(C(=O)N[C@@H](Cc2ccc(O)cc2)C[C@H](C)C(=O)NNC(=O)OCCSSC(C)(C)[C@@H](NC(=O)[C@@H](CC(=O)O)NC(=O)[C@@H](CC(=O)O)NC(=O)[C@@H](CCCNC(=N)N)NC(=O)[C@@H](CC(=O)O)NC(=O)CC[C@@H](NC(=O)c2ccc(NCc3cnc4nc(N)[nH]c(=O)c4n3)cc2)C(=O)O)C(=O)O)cs1)C(C)C (stereo partly shown) [EC1393] |  | 0.25 | 300 | 600 | 2.2 |  |  | 
6 | N.N.[Cl][Pt][Cl] [cisplatin, reference compound] |  |  |  |  |  |  |  | no PRs
